The text below walks through data of patent US9623062B2, “Anti-ageing activity of camphor in fibroblast cell line” (Jeju National University Industryacademic Cooperation …, priority 2014, dated 2017).

The subject of one experiment is fibroblasts. Nature of the experiment: ROS production by DCFH-DA flow cytometry in fibroblasts. Format: cell-based, human. The following applies: for increase of ROS production compared to non-treated cells: fibroblasts, 24 hours after treatment, FIG. 4A. How it is done: To analyze the reactive oxygen species (ROS), the cells were seeded in 60 mm culture dishes at a density of 2×10^4 cells/mL, and then treated with 10% chamomile hydrosol for 0, 6, 12, and 24 hours. The cells were stained with 2′-7′-dichlorodihydrofluorescein diacetate (DCFH-DA) for 15 minutes, collected in a 15 mL tube, and then washed with PBS. The cells were re-suspended in 500 μl of PBS, and measured for a level of ROS. For the cell cycle analysis, the treated cells were harvested and fixed overnight in 70% ethanol at 4° C. After 24 hours, the cells were rehydrated in 2 mM EDTA-BPS with RNase A (25 ng/ml), and stained with PI (40 μg/ml). All the analyses were performed using a FACS Caliber flow cytometer (BD Biosciences), and each sample were analyzed by counting 10,000 cells.
On the technique in general: A flow cytometer gives signals particle by particle.

Experiment [1] concerns fibroblast cells (SA-β-gal). The experiment is described as follows: Senescence-associated β-galactosidase activity in fibroblasts. Format: cell-based, human. How it is done: Fibroblast cells were incubated in 6-well plate at a density of 1×10^4 cells/well. Then the culture supernatants were removed and the cells were treated 72 h with only camphor (260 μM) or H2O2 600 μM and 800 μM or co-treated camphor and H2O2 in fresh media; ethanol containing media and media only were used as negative controls. In some experiments, H2O2 was pretreated on fibroblast cells 72 h and replaced with or without camphor treatment (260 μM) 48 h. After treatment, cells were washed twice with PBS and fixed 10 minutes in 4% formaldehyde. Then, this was followed by washing 3 times with wash solution (100 mM Na2HPO4 set to pH 6 with 100 mM Citric Acid). Cells was incubated overnight at 37° C. in freshly made staining solution (5 mM K3Fe(CN)6, 5 mM K4Fe(CN)6, 2 mM MgCl2, 150 mM NaCl, 40 mM Na2HPO4, 1 mg/mL bromo-chloro-indolyl-galactopyranoside (X-Gal), set to pH 6 with 100 mM citric acid). Next day, cells was washed the staining solution with PBS and taken picture by microscope and β-galactosidase-positive cell number ratio was calculated.

Experiment [2] concerns Primary dermal fibroblast cells. Nature of the experiment: MTT cell viability of fibroblasts. Format: cell-based, human. How it is done: Fresh human foreskin specimens were obtained from 8 donors aged from 6 to 12 years, who received a routine circumcision procedure of Jeju National University Hospital, Korea. After being digested with 0.1% […] (Worthington Biochemical Corporation, Lakewood, N.J.) at 4° C. overnight, the epidermal layers were removed, and the remaining dermal parts were further digested with 0.1% collagenase I (Worthington) at 37° C. for another 4 h. The digested cells were then passed through a […] cell strainer (BD Biosciences, Mississauga, ON, Canada), centrifuged, and resuspended in high-glucose DMEM (Gibco, Invitrogen, Carlsbad, Calif.), supplemented with 10% FBS (Gibco, Invitrogen, Carlsbad, Calif.), 100 U/ml penicillin, and 100 μg/ml streptomycin (all from PAA Laboratories, Linz, Austria). Cells were seeded on tissue culture plates at 1×10^3 cells/cm2, and maintained at 37° C. with 5% CO2. After 24 h, the plates were washed with PBS to remove residual non-adherent cells. The resulting adherent cells were grown to confluence within 7 days. Primary dermal fibroblast (2×10^4 cells/ml) cells were plated in 96-well plates in 200 μl of medium containing 10% FBS. After 24 h, the cells were treated with different concentrations of chamomile hydrosol or camphor. […] Cell viability was determined from the absorbance at 570 nm, measured using a Sunrise microplate reader (Tecan, Salzburg, Austria). […]

Experiment [3] concerns PI3K/AKT and MAPK signaling cascades. The experiment is described as follows: Western blot of PI3K/AKT/ERK/4E-BP1 phosphorylation in fibroblasts. Format: cell-based, human. How it is done:
(§1) After 0, 6, 12, 24 h treatment, cells were collected and lysed in lysis buffer (100 mM Tris-Hcl [pH 8], 250 mM NaCl, 0.5% Nonidet P-40, and 1× protease inhibitor cocktail) and sonicated few times then kept on ice for 30 min. The cell lysates were centrifuged at 13,000 rpm for 30 min at 4° C. The supernatant were collected and determined the concentration by BCA™ Protein assay (Pierce, Rockford, Ill.). For detecting MMP 1 and collagen I, and collagen III, we collected the media and centrifuging 400×g for 1 h at 4° C. by using Amicon Ultra 10K and determined the concentration by Bradford assay. Aliquots of the lysated were separated by 10-15% SDS-PAGE, and transferred to PVDF membranes using a glycine transfer buffer (192 mM glycine, 25 mM Tris-HCl [pH 8.8], and 20% [v/v] methanol). After blocking with Skim milk 5% overnight at 4° C., the membrane were incubated with primary antibodies for 1 h RT or overnight at 4° C. and then for 1 h with secondary antibodies. Primary antibodies were diluted at ratio 1:1000 whereas the anti-β-actin primary and secondary antibodies (horseradish peroxidase-conjugated goat anti-mouse IgG) (Vector Laboratories, Burlingame, Calif.) were diluted at ratio 1:10,000. Protein bands were detected using the WEST-ZOL® plus Western Blot Detection System (iNtRON, Gyeonggi-do, Korea).

The target in experiment [4] is T1, porcine pancreatic elastase (PPE (Type IV)) (Sus scrofa, UniProt P00772).
T1 construct: purchased Sigma
T1 sequence (P00772 27-266): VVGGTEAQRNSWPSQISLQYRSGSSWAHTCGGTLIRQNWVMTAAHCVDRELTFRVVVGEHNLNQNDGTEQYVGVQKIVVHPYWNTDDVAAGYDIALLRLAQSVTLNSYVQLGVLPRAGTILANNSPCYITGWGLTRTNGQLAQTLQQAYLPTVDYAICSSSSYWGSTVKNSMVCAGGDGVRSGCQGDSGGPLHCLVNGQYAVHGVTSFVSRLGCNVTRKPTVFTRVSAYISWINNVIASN
Nature of the experiment: Elastase assay. Format: biochemical. The settings on record: camphor 0-3200 μM, n-Suc-(Ala)3-nitroanilide substrate, FIG. 5B. How it is done:
The inhibition of different concentrations of camphor on porcine pancreatic elastase (PPE (Type IV), Sigma) activity was examined using n-Suc-(Ala)3-nitroanilide as the substrate, and the release of nitroaniline was measured at 410 nm. The reaction was carried out in a 200 mM Tris-HCl buffer (pH 8.0) containing 0.8 mM N-Suc-(Ala)3-nitroanilide and 5 μg/mL elastase. Different concentrations of camphor (0-3200 μM) were added to the reaction mixture to reach a final volume of 320 μl, and elastase inhibition was assessed in 96 well-plate reader at 25° C. The reaction mixture was pre-incubated for 10 minutes before addition of the substrate. The change in absorbance was measured at 410 nm using a 96-well reader. The percentage of elastase activities was calculated by the following equation: Enzyme activity (%)=100−[(B−A)/A]×100]
wherein A represents an absorbance at 410 nm without camphor, and B represents an absorbance at 410 nm with camphor.

In a further experiment the test system is Fibroblast cells. The experiment is described as follows: Total collagen assay (Sircol). In kind it is cell-based, human. The settings on record: cells treated with camphor vs non-treated control, FIG. 5C. How it is done:
Total collagen was quantified in culture media using the Sircol Soluble Collagen Assay kit (Biocolor, Newtownabbey, Northern Ireland) by quantitative dye-binding method, according to the manufacturer's instruction. Fibroblast cells were seeded in 6-well culture plates at density 2×10^5 cells/well with 2 ml/well media with or without camphor (260 μM) and incubated for different time points (6 h, 12 h, 24 h). After treatment, 200 μl sample medium of each group was transferred to a 1.5 ml centrifuge tube and 1 ml Sircol dye reagent was added into each tube. The mixed contents were incubated at room temperature for 30 min. Then the tubes were centrifuged at 10000 g for 10 minutes. The supernatants were drained off and discarded. The remaining pellets were mixed with 1 ml Alkali reagent and gently mixed until the pellets dissolved completely. The solutions were transferred to a 96-well plate and read absorbance at 540 nm. A standard curve was made simultaneously by standard collagen stock solution (0.5 mg/m1).

In experiment [5] the test system is collagen types I, III and IV and collagenase MMP1. Nature of the experiment: Western blot of collagen types and MMP1. In kind it is cell-based, human. The settings on record: camphor treatment. How it is done:
as §1

SMILES strings stand for the structures.

Turning to `OO` [H2O2, reference compound], in the experiment with fibroblasts, the “increase of ROS production compared to non-treated cells” value is on record as 53%. The SA-β-gal-positive cells entry in experiment [1] (H2O2 alone vs control, FIG. 5A) is given as “dramatically induced SA-β-gal-positive cells”.
Take `CC(=O)N[C@@H](CS)C(=O)O` [NAC, N-acetyl-L-cysteine, reference compound]: the “cell viabilities enhanced by camphor when ROS scavenged by NAC” value in experiment [2] (NAC pre-treatment, then camphor, FIG. 4C) is given as “decreased”. The “phosphorylation of PI3K, AKT, 4EBP1, and ERK increased by camphor, after NAC pre-treatment” value in experiment [3] (NAC pre-treatment plus camphor, FIG. 4D) is listed as “reduced the phosphorylation”. Besides, in the experiment on fibroblasts (fibroblasts pre-treated with NAC, then camphor 24 hours, FIG. 4B), the “camphor-induced ROS production after NAC pre-treatment” value is “decreased the induced ROS production”.
Turning to `CC1(C)C2CC[C@@]1(C)C(=O)C2` [camphor, (1R)-1,7,7-Trimethylbicyclo[2.2.1]heptan-2-one], in experiment [2] (camphor from 32.25 μM to 260 μM, FIG. 3A), the fibroblast viability result was “increased the fibroblast viability”. In experiment [3] (fibroblasts treated with camphor, FIG. 3B), the “phosphorylated forms of 4E-BP1” value is reported as “observed”. In addition, the “phosphorylation of PI3K, AKT, and ERK” value in experiment [3] (fibroblasts treated with camphor, time-dependent, FIG. 3B) was “increased the phosphorylation”. Further, in the experiment on fibroblasts, the “increase of ROS production compared to non-treated cells” value is on record as “approximately 13%”. Moreover, the “reversal of cellular senescence” value in experiment [1] (cells pre-treated with H2O2 at 800 μM, then camphor) is reported as “did not significantly reverse the cellular senescence”. Further, the SA-β-gal-positive cells entry in experiment [1] (co-treatment of camphor with 600 and 800 μM H2O2, 72 h) was “reduced the SA-β-gal-positive cells”. Further, in experiment [1] (pre-treated with 600 μM H2O2 for 3 days, then camphor for 2 days), the “number of senescent cells” value is on record as “significantly decreased”. The elastase activity inhibition result in experiment [4] is recorded as “inhibited the elastase activity in a concentration-dependent manner”. The “total volume of collagen” value with Fibroblast cells is listed as “increased”. Further, the “expression of MMP1” value in experiment [5] is reported as “no change”. For the same molecule, the “volume of collagen types III and IV” value in experiment [5] (FIG. 5D) is “increased”.
